Patent US8765791B2, “Method of treating cancer using a neuropeptide Y 5R (NP Y5R) antagonist” (University Health Network, priority 2008, dated 2014)

What was measured:
[1] = system: Breast cancer cells, MDA MB 468; experiment: breast cancer xenograft model (Example 11); format: in vivo, SCID mice; settings: 30 mg/kg i.p. 3/week, approximately 4 weeks
Experimental: Breast cancer cells, MDA MB 468 (12 million), were injected subcutaneously (s.c.) on the neck of SCID mice (CB17, female, 4-6 weeks old) (Charles River, Wilmington, Mass.). The mice were divided into four groups, 5 mice for each group. The treatments were started when the tumor volume reached about 100 mm^3, day 22 after tumor implantation. […] The tumor sizes were monitored every 3 or 4 days. […] (FIG. 12)

[2] = system: Hodgkin Lymphoma cells, HD-MYZ; experiment: Hodgkin lymphoma xenograft model (Example 12); format: in vivo, NOD-SCID mice; settings: 30 mg/kg i.p. 3/week, approximately 2 weeks
From the text: Hodgkin lymphoma cells, HD-MYZ (1 million), were implanted s.c. on the right flank of NOD-SCID mice (Cat#001303, female, 4-6 weeks from Jackson laboratories, Bar Harbor, Me.). The mice were divided into four groups, 5 mice for each group. […] The tumor growth was monitored during the experiment. […] (FIG. 13)

[3] = system: Lung cancer cells, H358; experiment: lung cancer xenograft model (Example 9); format: in vivo, CB17-SCID mice
Experimental: (§1) Lung cancer cells, H358, (1×10^6) were implanted in CB17-SCID mice. Ten days post-implantation, the mice were treated with MK0557 at 30 mg/kg or vehicle (15% of 0.5%) CMC (carboxymethylcelulose) (low viscosity) and 85% of 0.2% Tween80 in water) intraperitoneally daily for the first week followed by once every two days injections.

[4] = molecular target: T1, human NPY2R (Homo sapiens, UniProt P49146); settings: at a concentration of 10 μM; cited from earlier work
T1 sequence (P49146 1-381): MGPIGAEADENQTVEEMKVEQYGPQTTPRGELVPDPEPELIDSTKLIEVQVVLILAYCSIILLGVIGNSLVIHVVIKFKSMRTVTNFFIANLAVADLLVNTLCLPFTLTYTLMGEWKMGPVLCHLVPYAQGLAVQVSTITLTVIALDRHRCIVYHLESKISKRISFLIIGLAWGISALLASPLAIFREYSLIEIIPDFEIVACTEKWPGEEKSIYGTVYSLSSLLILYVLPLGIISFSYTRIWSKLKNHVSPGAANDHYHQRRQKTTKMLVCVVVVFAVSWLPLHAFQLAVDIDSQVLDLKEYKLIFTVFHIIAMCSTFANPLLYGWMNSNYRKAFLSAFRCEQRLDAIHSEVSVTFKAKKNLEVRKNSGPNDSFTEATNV

[5] = system: MCF-7 cells; experiment: breast cancer xenograft model (Example 4); format: in vivo, SCID mice
Experimental: MCF-7 cells were dissociated from flask surfaces then counted and spun down with a final concentration of 10×10^7 cells/ml produced. A total of 20 SCID mice, aged 6-8 weeks (CRL-CB17), were injected with 10×10^6 cells into lower mammary fat pads. After 3 weeks, all mice were inspected for tumor establishment and were measured for size (FIG. 5).
For this study, a total of 15 mice were selected from a group of 20, which had similar tumor sizes (3×3). Subsequently, these 15 mice were divided into three groups of 5. The first group, the control group, received the vehicle only (20% ETOH and 80% PEG 400); the second group received a dosage of 30 mg/kg of MK0557; and the third group received a dosage of 15 mg/kg of MK0557.
All groups were injected everyday via IP for the first five days, followed by injections every other day.

[6] = system: Colon cancer cells, HCT-15; experiment: colon cancer xenograft model (Example 8); format: in vivo, CB17-SCID mice
Experimental: as §1, with “Colon” for “Lung”, “HCT-15,” for “H358,”, “The” for “Ten days post-implantation, the”

[7] = molecular target: T2, mouse NPY6R (Mus musculus, UniProt Q61212); settings: at a concentration of 10 μM; cited from earlier work
T2 sequence (Q61212 1-371): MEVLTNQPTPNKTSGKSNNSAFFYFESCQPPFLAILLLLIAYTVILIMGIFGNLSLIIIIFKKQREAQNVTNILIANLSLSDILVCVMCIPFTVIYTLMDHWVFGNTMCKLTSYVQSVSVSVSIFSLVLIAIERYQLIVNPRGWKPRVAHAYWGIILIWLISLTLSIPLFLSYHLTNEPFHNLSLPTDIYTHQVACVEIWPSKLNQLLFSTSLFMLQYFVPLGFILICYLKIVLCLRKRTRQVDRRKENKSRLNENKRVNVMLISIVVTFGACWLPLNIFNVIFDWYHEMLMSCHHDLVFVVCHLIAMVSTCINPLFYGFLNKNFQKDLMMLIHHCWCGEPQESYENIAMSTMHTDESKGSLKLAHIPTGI

[8] = system: Ovarian cancer cells SKOV-3; experiment: ovarian cancer xenograft model (Example 13); format: in vivo, SCID mice; settings: 30 mg/kg i.p. 3/week
From the text: Ovarian cancer cells SKOV-3 (5 millions) were implanted s.c. on the right flank of SCID mice (CB17, female, 4-6 weeks) (Charles River, Wilmington, Mass.). The mice were divided into four groups, 5 mice for each group. The treatments were started when the tumor volume reached at around 60 mm3, day 8 after tumor implantation. […] The tumor growth was monitored for the duration of the experiment. […] (FIG. 14)

[9] = system: Hodgkin Lymphoma cells, HD-MYZ; experiment: Hodgkin lymphoma xenograft model (Example 5); format: in vivo, NOD-SCID mice; settings: 30 mg/kg ip 2/week, to day 36
Experimental: Hodgkin Lymphoma cells, HD-MYZ, (4 million) were injected subcutaneously on the left flank of 10-12 week old, female NOD-SCID mice (from The Jackson Lab, Cat#001303). […] The mice were sacrificed on day 36 when the experiment ended (FIG. 6).

[10] = system: Rat glioma cells; experiment: brain cancer xenograft model (Example 7); format: in vivo, CB17-SCID mice
Experimental: Rat glioma cells (2×10^6) were implanted in CB17-SCID mice. The mice were treated with MK0557 at 30 mg/kg, or vehicle (15% of 0.5%) CMC (carboxymethylcelulose) (low viscosity) and 85% of 0.2% Tween80 in water) intraperitoneally daily for the first week followed by once every two days injections.

[11] = 30 mg/kg intraperitoneally daily first week then once every two days

Question: Which results are given for `O=C1O[C@]2(CC[C@H](C(=O)Nc3ccn(-c4ccccc4F)n3)CC2)c2cnccc21` [MK-0557, trans-N-[1-(2-fluorophenyl)-3-pyrazolyl]-3-oxospiro[6 azaisobenzofuran-1(3H), 1′-cyclohexane]-4′carboxamide]?
Answer: tumor growth [1]: inhibited tumor growth; tumor growth [2]: inhibited tumor growth; effect on mouse body weights ([3]; 30 mg/kg intraperitoneally): no obvious effect; tumor growth [3, 11]: Tumor growth was inhibited; binding to human NPY2R [4]: does not significantly bind; mice tumor free ([5]; 30 mg/kg IP, third week): 4 out of 5; tumor growth ([5]; MCF-7 xenograft, 30 mg/kg and 15 mg/kg IP): dose-dependent inhibition of tumor growth; tumor size in treated groups ([5]; second week, 30 mg/kg and 15 mg/kg IP): tumor shrinkage was noticed; effect on mouse body weights ([6]; 30 mg/kg intraperitoneally): no obvious effect; tumor growth [6, 11]: Tumor growth was inhibited; binding to mouse NPY6R [7]: does not significantly bind; tumor growth [8]: inhibited tumor growth; tumor growth [9]: inhibition of tumor growth; effect on mouse body weights ([10]; 30 mg/kg intraperitoneally): no obvious effect; tumor growth [10, 11]: Tumor growth was inhibited
